Values after ≈ are worked out from the molar mass of the structure shown.
Experiments:
[1] = tested on: Pseudomonas aeruginosa (P. aeruginosa) 27853; assay: Antibacterial activity, MIC (Table 5); type: cell-based; settings: P. aeruginosa 27853, read-out: MIC, 27853
How it was run: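 Compounds are serially diluted in broth and inoculated with the organism. Growth is then inspected macroscopically, and the lowest concentration showing none is taken as the MIC (μg/mL).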

E. coli ELZ4251 = assay: Antibacterial activity, MIC, multi-drug resistant clinical isolate (Table 3); type: cell-based; settings: Escherichia coli
How it was run: (§1)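 Microbroth dilution. Endpoint: absence of macroscopically visible growth. Value = MIC, μg/mL.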

E. coli ELZ4000 = assay: as above; type: cell-based; settings: Escherichia coli, ELZ4000, read-out: MIC ELZ4000
How it was run: as §1

K. pneumoniae MXX1232 = assay: Antibacterial activity, MIC, resistant strain (Table 4); type: cell-based; settings: Klebsiella pneumoniae, MXX1232; resistant K. pneumoniae MMX1232, multi-drug resistant clinical isolate; read-out: MIC, MMX1232
How it was run: (§2)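 Compounds are serially diluted in microbroth, bacteria are grown under the test conditions, and growth is then inspected macroscopically. The lowest concentration without visible growth is reported as the MIC (μg/mL).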

A. baumannii MXX2240 = assay: as above; type: cell-based; settings: Acinetobacter baumannii, MXX2240; resistant A. baumannii MMX2240, multi-drug resistant clinical isolate; read-out: MIC, MMX2240
How it was run: as §2

E. coli 25922 = assay: Antibacterial activity, microbroth dilution MIC (Table 1); type: cell-based, Escherichia coli; settings: Escherichia coli; microbroth dilution; control Gram-negative E. coli 25922 strain; read-out: MIC, 25922
How it was run: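 Values are MICs (μg/mL): the smallest drug amount at which macroscopically visible bacterial growth is absent under assay conditions, from a microdilution method in broth.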

[2] = tested on: Escherichia coli (E. coli) BAS849; assay: as above; type: cell-based; settings: microbroth dilution, super sensitive Gram-negative E. coli BAS849, read-out: MIC, BAS849
How it was run: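 In a microbroth dilution test, the minimum inhibitory concentration was defined as the lowest compound level preventing growth seen by eye, and was given in μg/mL.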

[3] = tested on: Staphylococcus aureus (S. aureus) 29213; assay: as above; type: cell-based; settings: microbroth dilution, Gram-positive S. aureus 29213, read-out: MIC, 29213
How it was run: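 Lowest concentration stopping macroscopically visible growth under test conditions, by broth microdilution, defines the MIC (μg/mL).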

E. coli LZ3111 = assay: Antibacterial activity, MIC, quinolone resistant strain (Table 2); type: cell-based; settings: Escherichia coli, LZ3111, read-out: MIC LZ3111
How it was run: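 Strain carries mutations conferring high-level quinolone resistance; tested by microbroth dilution, MIC recorded in μg/mL as lowest concentration preventing visible growth.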

[4] = tested on: Acinetobacter baumannii (A. baumannii) BAA747; assay: Antibacterial activity, MIC (Table 4); type: cell-based; settings: A. baumannii BAA747, read-out: MIC, BAA747
How it was run: as §2

[5] = tested on: Klebsiella pneumoniae (K. pneumoniae) 35657; assay: Antibacterial activity, MIC (Table 4); type: cell-based; settings: K. pneumoniae 35657, read-out: MIC, 35657
How it was run: as §2

## CCc1c(-c2ccc3ccn(C)c3c2)[nH]c(=O)c(C(=O)O)c1O [Cpd 8, 5-ethyl-4-hydroxy-6-(1-methyl-1H-indol-6-yl)-2-oxo-1,2-dihydropyridine-3-carboxylic acid]
[1]
  MIC: 12.5 to 150 µg/mL (≈ 40 to 480 µM)
E. coli ELZ4251
  MIC: 12.5 to 150 µg/mL (≈ 40 to 480 µM)
E. coli ELZ4000
  MIC: 12.5 to 150 µg/mL (≈ 40 to 480 µM)
K. pneumoniae MXX1232
  MIC: 12.5 to 150 µg/mL (≈ 40 to 480 µM)
A. baumannii MXX2240
  MIC: 12.5 to 150 µg/mL (≈ 40 to 480 µM)
E. coli 25922
  MIC: 12.5 to 150 µg/mL (≈ 40 to 480 µM)
[2]
  MIC: 1 to 3.5 µg/mL (≈ 3.2 to 11.2 µM)
[3]
  MIC: 3.5 to 12.5 µg/mL (≈ 11.2 to 40 µM)
E. coli LZ3111
  MIC: 3.5 to 12.5 µg/mL (≈ 11.2 to 40 µM)
[4]
  MIC: 12.5 to 150 µg/mL (≈ 40 to 480 µM)
[5]
  MIC: 12.5 to 150 µg/mL (≈ 40 to 480 µM)

## CCc1cc(C(=O)O)c(=O)[nH]c1-c1ccc2c(c1)cc(CN1CC[C@@H](F)C1)n2C [Cpd 129, (R)-5-ethyl-6-(2-((3-fluoropyrrolidin-1-yl)methyl)-1-methyl-1H-indol-5-yl)-2-oxo-1,2-dihydropyridine-3-carboxylic acid]
[1]
  MIC: 12.5 to 150 µg/mL (≈ 31.5 to 377 µM)
E. coli ELZ4251
  MIC: 12.5 to 150 µg/mL (≈ 31.5 to 377 µM)
E. coli ELZ4000
  MIC: 12.5 to 150 µg/mL (≈ 31.5 to 377 µM)
K. pneumoniae MXX1232
  MIC: 12.5 to 150 µg/mL (≈ 31.5 to 377 µM)
A. baumannii MXX2240
  MIC: 12.5 to 150 µg/mL (≈ 31.5 to 377 µM)
E. coli 25922
  MIC: < 1 µg/mL
[2]
  MIC: < 1 µg/mL
[3]
  MIC: 3.5 to 12.5 µg/mL (≈ 8.81 to 31.5 µM)
E. coli LZ3111
  MIC: 12.5 to 150 µg/mL (≈ 31.5 to 377 µM)
[4]
  MIC: 3.5 to 12.5 µg/mL (≈ 8.81 to 31.5 µM)
[5]
  MIC: 1 to 3.5 µg/mL (≈ 2.52 to 8.81 µM)

## CCc1cc(C(=O)O)c(=O)[nH]c1-c1ccc2c(c1)cc(CN1CCCC1C)n2C (stereo not drawn) [Cpd 130, 5-ethyl-6-(1-methyl-2-((2-methylpyrrolidin-1-yl)methyl)-1H-indol-5-yl)-2-oxo-1,2-dihydropyridine-3-carboxylic acid]
[1]
  MIC: 12.5 to 150 µg/mL (≈ 31.8 to 381 µM)
E. coli ELZ4251
  MIC: 12.5 to 150 µg/mL (≈ 31.8 to 381 µM)
E. coli ELZ4000
  MIC: 12.5 to 150 µg/mL (≈ 31.8 to 381 µM)
K. pneumoniae MXX1232
  MIC: 12.5 to 150 µg/mL (≈ 31.8 to 381 µM)
A. baumannii MXX2240
  MIC: 12.5 to 150 µg/mL (≈ 31.8 to 381 µM)
E. coli 25922
  MIC: < 1 µg/mL
[2]
  MIC: < 1 µg/mL
[3]
  MIC: 12.5 to 150 µg/mL (≈ 31.8 to 381 µM)
E. coli LZ3111
  MIC: 12.5 to 150 µg/mL (≈ 31.8 to 381 µM)
[4]
  MIC: 1 to 3.5 µg/mL (≈ 2.54 to 8.89 µM)
[5]
  MIC: < 1 µg/mL

## CCc1cc(C(=O)O)c(=O)[nH]c1-c1ccc2c(c1)cc(CN1CCC[C@@H]1CO)n2C [Cpd 132, (R)-5-ethyl-6-(2-((2-(hydroxymethyl)pyrrolidin-1-yl)methyl)-1-methyl-1H-indol-5-yl)-2-oxo-1,2-dihydropyridine-3-carboxylic acid]
[1]
  MIC: 12.5 to 150 µg/mL (≈ 30.5 to 366 µM)
E. coli ELZ4251
  MIC: 12.5 to 150 µg/mL (≈ 30.5 to 366 µM)
E. coli ELZ4000
  MIC: 12.5 to 150 µg/mL (≈ 30.5 to 366 µM)
K. pneumoniae MXX1232
  MIC: 12.5 to 150 µg/mL (≈ 30.5 to 366 µM)
A. baumannii MXX2240
  MIC: 12.5 to 150 µg/mL (≈ 30.5 to 366 µM)
E. coli 25922
  MIC: < 1 µg/mL
[2]
  MIC: < 1 µg/mL
[3]
  MIC: 12.5 to 150 µg/mL (≈ 30.5 to 366 µM)
E. coli LZ3111
  MIC: 12.5 to 150 µg/mL (≈ 30.5 to 366 µM)
[4]
  MIC: 3.5 to 12.5 µg/mL (≈ 8.55 to 30.5 µM)
[5]
  MIC: < 1 µg/mL

## CCc1cc(C(=O)O)c(=O)[nH]c1-c1ccc2c(c1)cc(CN1CCCCC1)n2C [Cpd 133, 5-ethyl-6-(1-methyl-2-(piperidin-1-ylmethyl)-1H-indol-5-yl)-2-oxo-1,2-dihydropyridine-3-carboxylic acid]
[1]
  MIC: 12.5 to 150 µg/mL (≈ 31.8 to 381 µM)
E. coli ELZ4251
  MIC: 12.5 to 150 µg/mL (≈ 31.8 to 381 µM)
E. coli ELZ4000
  MIC: 12.5 to 150 µg/mL (≈ 31.8 to 381 µM)
K. pneumoniae MXX1232
  MIC: 12.5 to 150 µg/mL (≈ 31.8 to 381 µM)
A. baumannii MXX2240
  MIC: 12.5 to 150 µg/mL (≈ 31.8 to 381 µM)
E. coli 25922
  MIC: < 1 µg/mL
[2]
  MIC: < 1 µg/mL
[3]
  MIC: 12.5 to 150 µg/mL (≈ 31.8 to 381 µM)
E. coli LZ3111
  MIC: 12.5 to 150 µg/mL (≈ 31.8 to 381 µM)
[4]
  MIC: 1 to 3.5 µg/mL (≈ 2.54 to 8.89 µM)
[5]
  MIC: < 1 µg/mL

## CCc1c(-c2ccc3c(c2)cc(CNC(CF)CF)n3C)[nH]c(=O)c(C(=O)O)c1O [Cpd 274, 6-(2-((1,3-difluoropropan-2-ylamino)methyl)-1-methyl-1H-indol-5-yl)-5-ethyl-4-hydroxy-2-oxo-1,2-dihydropyridine-3-carboxylic acid]
[1]
  MIC: 12.5 to 150 µg/mL (≈ 29.8 to 358 µM)
E. coli ELZ4251
  MIC: 3.5 to 12.5 µg/mL (≈ 8.34 to 29.8 µM)
E. coli ELZ4000
  MIC: 12.5 to 150 µg/mL (≈ 29.8 to 358 µM)
K. pneumoniae MXX1232
  MIC: 12.5 to 150 µg/mL (≈ 29.8 to 358 µM)
A. baumannii MXX2240
  MIC: 3.5 to 12.5 µg/mL (≈ 8.34 to 29.8 µM)
E. coli 25922
  MIC: 1 to 3.5 µg/mL (≈ 2.38 to 8.34 µM)
[2]
  MIC: < 1 µg/mL
[3]
  MIC: 3.5 to 12.5 µg/mL (≈ 8.34 to 29.8 µM)
E. coli LZ3111
  MIC: 3.5 to 12.5 µg/mL (≈ 8.34 to 29.8 µM)
[4]
  MIC: 3.5 to 12.5 µg/mL (≈ 8.34 to 29.8 µM)

## Cc1c(-c2ccc3c(c2)cc(CN2CCCC2)n3C)[nH]c(=O)c(C(=O)O)c1O [Cpd 313, 4-hydroxy-5-methyl-6-(1-methyl-2-(pyrrolidin-1-ylmethyl)-1H-indol-5-yl)-2-oxo-1,2-dihydropyridine-3-carboxylic acid]
[1]
  MIC: 12.5 to 150 µg/mL (≈ 32.8 to 393 µM)
E. coli ELZ4251
  MIC: 1 to 3.5 µg/mL (≈ 2.62 to 9.18 µM)
E. coli ELZ4000
  MIC: 3.5 to 12.5 µg/mL (≈ 9.18 to 32.8 µM)
K. pneumoniae MXX1232
  MIC: 12.5 to 150 µg/mL (≈ 32.8 to 393 µM)
A. baumannii MXX2240
  MIC: 1 to 3.5 µg/mL (≈ 2.62 to 9.18 µM)
E. coli 25922
  MIC: 3.5 to 12.5 µg/mL (≈ 9.18 to 32.8 µM)
[2]
  MIC: < 1 µg/mL
[3]
  MIC: 12.5 to 150 µg/mL (≈ 32.8 to 393 µM)
E. coli LZ3111
  MIC: 1 to 3.5 µg/mL (≈ 2.62 to 9.18 µM)
[4]
  MIC: 3.5 to 12.5 µg/mL (≈ 9.18 to 32.8 µM)
